Reference: US20040171093A1, “Methods for detecting deficient cellular membrane tightly bound magnesium for disease diagnoses” (priority 1999, published 2004)
Values joined by “and” are separate entries in the source; they are usually repeats but may differ in a detail not shown here. Equal values may be shown once. “Also recorded” adds a separate entry of the source. Ends that are not written are not given here.

Tests used:
[1] = system: magnesium deficient erythrocytes; experiment: Promotion of magnesium binding in magnesium depleted erythrocyte membranes (in vitro screen); assay type: cell-based, human; settings: for Magnesium Binding: aged Mg-deficient human erythrocytes incubated in 5 mL medium, 37° C., three hours, peptide amount equimolar to 6 ugm Substance P, quadruplet mean (n) or duplicate values; for measurable binding of magnesium ions to the erythrocyte membrane (in words): uptake in excess of that with KRPG alone; for approximate ratios of binding activities: magnesium uptake in excess of KRPG alone, normal plasma = 1; for activity relative to Substance P in promoting magnesium binding / correcting the MgBD: equal molar amounts tested
Protocol: In order to identify those substances which promote binding of magnesium ion to plasma membranes (tightly bound magnesium ion) and that ameliorate or correct the magnesium binding defect, a deficit of membrane tightly bound magnesium was created experimentally in erythrocytes without the magnesium binding defect. Human erythrocytes were obtained from blood samples that had been drawn two days previously and kept for varying periods of time at room temperature, or at approximately 5° C. Preferred results were obtained with those samples in which either sodium citrate or sodium heparin was the anticoagulant. The length of time held and time held before moving to room temperature or 5° C is not believed to be critical. Although it was possible to create the MgBD in cells held as above, more reproducible results would be expected if fresh drawn blood were to be used.
The following procedure was employed to generate a deficit of plasma membrane tightly bound magnesium ion in the erythrocytes. Art recognized adaptations of this procedure can be used for generation of a deficit in other somatic cells, such as from urine or buccal cells. Samples of blood described above were kept at room temperature overnight and then pooled in a beaker placed in crushed ice and the blood was stirred slowly to collect any fibrin that may have formed. The blood was then centrifuged (600×g, 15 minutes) at 5° C. and the plasma layer removed by aspiration. Residual plasma was removed from the cells by suspending them twice in equal volumes of cold normal saline and then twice in equal volumes of cold Alsever's solution (trisodium citrate 32.5 mM, citric acid 2.7mM, D-glucose 114 mM, NaCl 137 mM, pH 6.1). Finally, the washed cells were suspended again in an equal volume of the same Alsever's solution to which approximately 1.25 mg/ml of sodium deoxycholate was added. This suspension was filtered through cheese cloth and kept at 4° C. with gently mixing once each day. Although the Alsever's plus sodium deoxycholate solution is a preferred example of a holding solution, any cell stabilizing buffer plus sodium deoxycholate may be utilized in the practice of the invention.
The concentration of magnesium ion tightly bound to the erythrocyte membranes was determined by using 5 mL portions of the approximately two day old blood sample and the stored erythrocyte suspension. After these portions were centrifuged as above and the supernatant fluids aspirated, the residues of cells were suspended four times in 15 mL portions of cold hemolyzing buffer (Tris Tris HCl 5 mM, sucrose 14 mM, pH 7.4) and centrifuged (15,000×g, 15 minutes). The supernatant fluids were removed by gentle aspiration. The decanting procedure was repeated as necessary to remove all of the dark red residue (Example 1). The penultimate residue was resuspended by gently pouring the hemolyzing buffer onto the residue and decanting the readily suspended cell membranes from the small, dark red, dense residue which adhered to the centrifuge tube. The final, nearly colorless residue of membranes was transferred and brought to a total volume of 25 mL in a volumetric flask using the hemolyzing buffer. These preparations of erythrocyte membranes were stored at 4° C. until the total protein contents were determined by the Bicinchoninic Acid procedure and the total magnesium contents determined by atomic absorption spectroscopy. From these values the concentrations of tightly bound magnesium in the cell membranes were expressed as nanograms of magnesium per 0.50 mg of membrane protein. This determination of the magnesium binding was repeated each day or so until the level of binding first ceased to decrease.
Preparations of aged erythrocytes in which the MgBD has been developed were used as soon as possible in incubations with normal blood plasma, and other magnesium containing fluids, in search of substances which could correct the MgBD (Example 7). […]

normotensive subjects = settings: Qu and Stuesse, 1990; cited from earlier work
Sprague-Dawley rats [2] = experiment: Systolic blood pressure after i.v. peptide, tail-cuff method, normotensive control rats; assay type: in vivo, rat
Protocol: (§1) In this procedure the systolic blood pressure was measured in conscious animals by using the photoelectric, tail-cuff, compression method as follows. The animal was placed in an incubator at 40° for twenty minutes in order to elevate its body temperature. The cuff, which was placed around the tail, included sensor which provided the pressure signal which was recorded onto a chart. After the pre-injection pressure was recorded, the animal was immediately injected through the tail vein with 168 uL of a freshly prepared solution of the tetrapeptide (SEQ ID NO:2) in normal saline.
(§2) In the initial experiments, the blood pressure was recorded at 5, 10, 30, 60 and 300 minutes after the administration of the tetrapeptide. There was no further decrease in the blood pressure after 10 minutes and the blood pressure returned to the pre-injection level within 60 minutes. Therefore, in further experiments, the blood pressure of each animal was recorded 10 minutes after the injection of the tetrapeptide.

[3] = system: erythrocytes from essential hypertensive patients; experiment: Remediation of magnesium binding defect in vitro, erythrocytes from essential hypertensive patients; assay type: cell-based, human; settings: incubated for 3 hrs. at 37° C.
Protocol: The effect of the tetrapeptide (SEQ ID NO:2) and pentapeptide (SEQ ID NO:1) on the binding of magnesium by the erythrocyte membrane was ascertained by measuring the magnesium contents of ghosts after the erythrocytes from essential hypertensive patients and normal controls were incubated with one or both of the peptides. For this purpose, two 10 ml samples of heparinized blood from essential hypertensive subjects were utilized. After the plasma was separated from the erythrocytes, the erythrocytes were washed twice with 10 ml of cold erythrocyte wash and the peptides were then added to the erythrocytes from the hypertensive subjects and the mixtures were incubated for 3 hrs. at 37° C., chilled on ice and the erythrocyte ghosts were prepared and analyzed for magnesium and protein as described in Example 1.

SS/Jr rats [4] = experiment: Systolic blood pressure after i.v. tetrapeptide, tail-cuff method, hypertensive rats; assay type: in vivo, rat
Protocol: as §1, §2

SS/Jr rats [5] = experiment: Tightly bound magnesium in erythrocyte membranes after i.v. tetrapeptide, hypertensive rats; assay type: in vivo, rat; settings: intravenous administration
Protocol: (§3) The rats were allowed to rest for one day and then one-half of the SS/Jr and one-half of the Sprague-Dawley rats were injected as above with 3.0 ugm/kg of the tetrapeptide (SEQ ID NO:2). All of the rats were sacrificed by decapitation 30 minutes later and the blood from each rat was collected in a centrifuge tube containing sufficient heparin to prevent clotting. The blood samples were centrifuged (1,000×g, 20 minutes) at 5° C. and the individual plasma layers were removed and frozen. The residues of erythrocytes were suspended three times in cold, normal saline and then were hemolyzed by the addition of 15 mL of cold hemolyzing buffer (10 mM Tris Tris HCl, pH 7.4). This buffer was then used in the isolation of the erythrocyte membranes from these hemolysates and in the determination of their total magnesium and protein contents as described above.

Sprague-Dawley rats [6] = experiment: Tightly bound magnesium in erythrocyte membranes after i.v. tetrapeptide, normotensive control rats; assay type: in vivo, rat; settings: intravenous administration
Protocol: as §3

SS/Jr rats [7] = experiment: Plasma glucose (anthrone method) after i.v. tetrapeptide, SS/Jr rats; assay type: in vivo, rat; settings: 3.0 ugm/kg i.v., 30 minutes
Protocol: as §3
(§4) The glucose concentrations in the reserved plasma samples were determined by the anthrone method (Rendina, 1971). The concentrations in the injected SS/Jr rats were not different from those of the SS/Jr rats which were not injected with the tetrapeptide. This was also the case with the Sprague-Dawley control rats. Thus, the values of the SS/Jr rats were combined and compared with the combined, control values of the Sprague-Dawley rats as follows: 149.2±7.5 (15) vs. 100.7±11.2 (4) mg/100 mL., P<0.01. […]

Sprague-Dawley rats [8] = experiment: Plasma glucose (anthrone method) after i.v. tetrapeptide, Sprague-Dawley rats; assay type: in vivo, rat; settings: 3.0 ugm/kg i.v., 30 minutes
Protocol: as §3, §4

Substance: 9-11 Substance P: commercial preparation of amidated peptide derived from the C-terminal region of Substance P (Gly-Leu-Met-NH2; UniProt P20366 66-68, looked up, fragment) [reference compound]
- Magnesium Binding [1]: 546 Nanograms of magnesium per 0.50 mg of membrane protein and 510 Nanograms of magnesium per 0.50 mg of membrane protein
- measurable binding of magnesium ions to the erythrocyte membrane (in words) [1]: no measurable activity

Substance: Arg-Pro-Lys-Pro-Gln-Gln-Phe-Phe-Gly-Leu-Met-NH2 [Substance P, reference compound]
- approximate ratios of binding activities [1]: ~1.1
- measurable binding of magnesium ions to the erythrocyte membrane (in words) [1]: promoted measurable binding
- effect of intravenously injected Substance P on blood pressure (normotensive subjects): the reduction in blood pressure resulted in lower than normal values

Substance: Phe-Phe-Gly-Leu-Met-NH2 (FFGLM-NH2; listed as Homo sapiens) [pentapeptide]
- Magnesium Binding ([1]; listed as 7-11 Substance P): 886 Nanograms of magnesium per 0.50 mg of membrane protein and 866 Nanograms of magnesium per 0.50 mg of membrane protein
- activity relative to Substance P in promoting magnesium binding / correcting the MgBD [1]: about four times as active as Substance P; also recorded: significantly more active than Substance P; also recorded: several fold more active than Substance P
- approximate ratios of binding activities [1]: ~3.7
- measurable binding of magnesium ions to the erythrocyte membrane (in words) [1]: promoted measurable binding
- effect on blood pressure of normotensive rats (in words) (Sprague-Dawley rats [2]): had no effect on systolic blood pressure
- binding of magnesium to erythrocyte membranes of hypertensive subjects after incubation (in words) [3]: returned to normal

Substance: 1-9 Substance P: commercial preparation of amidated peptide derived from the N-terminal region of Substance P (RPKPQQFFG-NH2; UniProt P20366 58-66, looked up, fragment) [reference compound]
- Magnesium Binding [1]: 500 Nanograms of magnesium per 0.50 mg of membrane protein and 490 Nanograms of magnesium per 0.50 mg of membrane protein
- measurable binding of magnesium ions to the erythrocyte membrane (in words) [1]: no measurable activity

Substance: Phe-Gly-Leu-Met-NH2 (FGLM-NH2; listed as Homo sapiens) [tetrapeptide]
- Magnesium Binding ([1]; listed as 8-11 Substance P): 968 Nanograms of magnesium per 0.50 mg of membrane protein and 954 Nanograms of magnesium per 0.50 mg of membrane protein
- activity relative to Substance P in promoting magnesium binding / correcting the MgBD [1]: about four times as active as Substance P; also recorded: significantly more active than Substance P; also recorded: several fold more active than Substance P
- approximate ratios of binding activities [1]: ~4.6
- measurable binding of magnesium ions to the erythrocyte membrane (in words) [1]: promoted measurable binding
- effect on blood pressure of hypertensive rats (in words) (SS/Jr rats [4]; SS/Jr rats, intravenous administration): fallen to control values; also recorded: corrected; also recorded: reduced the hypertensive blood pressure of the SS/Jr rats to the normal blood pressure of their controls; also recorded: reduced its systolic blood pressure from an elevated value of 210 mm Hg to the control value
- time for blood pressure to fall to control values / no further decrease (SS/Jr rats [4]; after i.v. injection): ≤ 10 min
- time for blood pressure to return to the pre-injection level (SS/Jr rats [4]; after i.v. injection): ≤ 60 min
- effect on blood pressure of normotensive rats (in words) (Sprague-Dawley rats [2]): unaffected; also recorded: had no influence; also recorded: did not affect the blood pressures; also recorded: had no effect on systolic blood pressure
- correction of the magnesium binding defect in erythrocytes (in words) (SS/Jr rats [5]): corrected; also recorded: corrects the magnesium binding defect
- effect on erythrocyte magnesium binding of control rats (in words) (Sprague-Dawley rats [6]): unaffected; also recorded: had no influence
- plasma glucose concentration, injected versus not injected (SS/Jr rats [7]): not different
- plasma glucose concentration, injected versus not injected (Sprague-Dawley rats [8]): not different
- binding of magnesium to erythrocyte membranes of hypertensive subjects after incubation (in words) [3]: returned to normal
